A value given as a limit tells only on which side of the number the result lay.

Chain of Human factor D (P00746 26-253): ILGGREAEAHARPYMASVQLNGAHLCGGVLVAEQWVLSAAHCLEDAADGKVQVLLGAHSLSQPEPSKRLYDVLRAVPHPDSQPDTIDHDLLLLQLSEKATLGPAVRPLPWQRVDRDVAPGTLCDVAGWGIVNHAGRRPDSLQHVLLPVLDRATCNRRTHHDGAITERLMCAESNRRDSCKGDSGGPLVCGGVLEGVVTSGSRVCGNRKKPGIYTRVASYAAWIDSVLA

The assay concerns the target Human factor D (Homo sapiens (Human), UniProt P00746). Kind of assay: Human Factor D Assay. The format is biochemical. The conditions noted are these: human factor D 80 nM, substrate Z-L-Lys-SBzl, DTNB. The method in brief:
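Serum-purified factor D (80 nM final) preincubated 5 min at room temperature with compound in 50 mM Tris, 1M NaCl, pH 7.5. Z-L-Lys-SBzl and DTNB added at 100 μM each; OD405 followed kinetically over 30 min. IC50 by non-linear regression of % inhibition.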
`COc1ncc(-c2ccc3c(c2)c(C(C)=O)cn3CC(=O)N2[C@@H]3C[C@@H]3C[C@H]2C(=O)Nc2cccc(-c3ccccc3Cl)c2F)cn1` [Compound 80, (1R,3S,5R)-2-(2-(3-acetyl-5-(2-methoxypyrimidin-5-yl)-1H-indol-1-yl)acetyl)-N-(2′-chloro-2-fluorobiphenyl-3-yl)-2-azabicyclo[3.1.0] hexane-3-carboxamide] had an IC50 of less than 1000 nM.

Take `NC(=O)c1nn(CC(=O)N2C[C@H](F)C[C@H]2C(=O)NC2CCCc3nc(-c4ccc(F)cc4)sc32)c2ccc(-c3ccnnc3)cc12` (stereo partly drawn) [Compound 107, 1-(2-((2S,4R)-4-fluoro-2-(2-(4-fluorophenyl)-4,5,6,7-tetrahydrobenzo[d]thiazol-7-ylcarbamoyl)pyrrolidin-1-yl)-2-oxoethyl)-5-(pyridazin-4-yl)-1H-indazole-3-carboxamide]: the IC50 is greater than 10000 nM.

`CC(=O)c1cn(CC(=O)N2C[C@H](F)C[C@H]2C(=O)Nc2cccc(-c3ccccc3Cl)c2F)c2ccc(-c3ccnnc3)cc12` [Compound 20, (2S,4R)-1-(2-(3-Acetyl-5-(pryridazin-4-yl)-1H-indol-1-yl)acetyl)-N-(2′-chloro-2-fluoro-[1,1′-biphenyl]-3-yl)-4-fluoropyrrolidine-2-carboxamide] yielded an IC50 of less than 1000 nM.

As for `CC(=O)c1cn(CC(=O)N2C[C@H](F)C[C@H]2C(=O)Nc2cncc(Br)n2)c2ccc(-c3ccnnc3)cc12` [Compound 127, (2S,4R)-1-(2-(3-acetyl-5-(pyridazin-4-yl)-1H-indol-1-yl)acetyl)-N-(6-bromopyrazin-2-yl)-4-fluoropyrrolidine-2-carboxamide], the IC50 was less than 1000 nM.

The compound `COc1ncc(-c2ccc3c(c2)c(C(C)=O)cn3CC(=O)N2[C@@H]3C[C@@H]3C[C@H]2C(=O)Nc2cccc(Br)n2)cn1` [Compound 81, (1R,3S,5R)-2-(2-(3-acetyl-5-(2-methoxypyrimidin-5-yl)-1H-indol-1-yl)acetyl)-N-(6-bromopyridin-2-yl)-2-azabicyclo[3.1.0] hexane-3-carboxamide] displayed an IC50 of less than 1000 nM.

`NC(=O)c1nn(CC(=O)N2C[C@H](F)C[C@H]2C(=O)Nc2ccc3ccccc3c2)c2ccc(-c3ccnnc3)cc12` [Compound 131, 1-(2-((2S,4R)-4-fluoro-2-(naphthalen-2-ylcarbamoyl)pyrrolidin-1-yl)-2-oxoethyl)-5-(pyridazin-4-yl)-1H-indazole-3-carboxamide] gave an IC50 greater than 10000 nM.

With `NC(=O)c1nn(CC(=O)N2C[C@H](F)C[C@H]2C(=O)Nc2cccc(-c3ccccc3Cl)c2F)c2cnc(-c3cncnc3)cc12` [Compound 19, 1-(2-((2S,4R)-2-(2′-chloro-2-fluorobiphenyl-3-ylcarbamoyl)-4-fluoropyrrolidin-1-yl)-2-oxoethyl)-5-(pyrimidin-5-yl)-1H-pyrazolo[3,4-c]pyridine-3-carboxamide], the IC50 is less than 1000 nM.

Turning to `NC(=O)c1nn(CC(=O)N2C[C@H](F)C[C@H]2C(=O)Nc2ccc3cn[nH]c3c2)c2ccc(-c3ccnnc3)cc12` [Compound 86, 1-(2-((2S,4R)-2-(1H-indazol-6-ylcarbamoyl)-4-fluoropyrrolidin-1-yl)-2-oxoethyl)-5-(pyridazin-4-yl)-1H-indazole-3-carboxamide], the IC50 was greater than 10000 nM.

The compound `CC(=O)c1cn(CC(=O)N2C[C@H](F)C[C@H]2C(=O)Nc2noc3cc(C(F)(F)F)ccc23)c2ccc(-c3ccnnc3)cc12` [Compound 42, (2S,4R)-1-(2-(3-acetyl-5-(pyridazin-4-yl)-1H-indol-1-yl)acetyl)-4-fluoro-N-(6-(trifluoromethyl)benzo [d]isoxazol-3-yl)pyrrolidine-2-carboxamide] had an IC50 greater than 10000 nM.

Regarding `NC(=O)c1nn(CC(=O)N2[C@@H]3C[C@@H]3C[C@H]2C(=O)Nc2cccc(Br)n2)c2ccc(-c3cnc(N4CCCC4)nc3)cc12` [Compound 11], the IC50 was less than 1000 nM.

Regarding `NC(=O)c1nn(CC(=O)N2C[C@H](F)C[C@H]2C(=O)N[C@@H]2CCC[C@H]2O)c2ccc(-c3ccnnc3)cc12` [Compound 145, 1-(2-((2S,4R)-4-fluoro-2-((1R,2R)-2-hydroxycyclopentyl-carbamoyl)pyrrolidin-1-yl)-2-oxoethyl)-5-(pyridazin-4-yl)-1H-indazole-3-carboxamide], the IC50 was greater than 10000 nM.

For the compound `NC(=O)c1nn(CC(=O)N2C[C@H](F)C[C@H]2C(=O)Nc2cccc(-c3ccccc3Cl)c2F)c2ccc(-c3ccc(F)nc3)cc12` [Compound 12, 1-(2-((2S,4R)-2-((2′-Chloro-2-fluoro-[1,1′-biphenyl]-3-yl)carbamoyl)-4-fluoropyrrolidin-1-yl)-2-oxoethyl)-5-(6-fluoropyridin-3-yl)-1H-indazole-3-carboxamide], the IC50 was less than 1000 nM.

Regarding `CC(=O)c1cn(CC(=O)N2C[C@H](F)C[C@H]2C(=O)Nc2nc(-c3ccc4c(c3)CCCC4)cs2)c2ccc(-c3ccnnc3)cc12` [Compound 54, (2S,4R)-1-(2-(3-acetyl-5-(pyridazin-4-yl)-1H-indol-1-yl)acetyl)-4-fluoro-N-(4-(5,6,7,8-tetrahydronaphthalen-2-yl)thiazol-2-yl)pyrrolidine-2-carboxamide], the IC50 was greater than 10000 nM.

`NC(=O)c1nn(CC(=O)N2C[C@H](F)C[C@H]2C(=O)Nc2nc(-c3cccc(Cl)c3)ns2)c2ccc(-c3ccnnc3)cc12` [Compound 146, 1-(2-((2S,4R)-2-(3-(3-chlorophenyl)-1,2,4-thiadiazol-5-ylcarbamoyl)-4-fluoropyrrolidin-l-yl)-2-oxoethyl)-5-(pyridazin-4-yl)-1H-indazole-3-carboxamide]: the IC50 was greater than 10000 nM.

The compound `NC(=O)c1nn(CC(=O)N2C[C@H](F)C[C@H]2C(=O)N[C@H]2CCCC[C@@H]2OCc2ccccc2)c2ccc(-c3ccnnc3)cc12` [Compound 78] gave an IC50 greater than 10000 nM.

`CC(=O)c1cn(CC(=O)N2C[C@H](F)C[C@H]2C(=O)NCc2cccc(Cl)c2F)c2ccc(-c3cnc(C)nc3)cc12` [Compound 135, (2S,4R)-1-(2-(3-acetyl-5-(2-methylpyrimidin-5-yl)-1H-indol-1-yl)acetyl)-N-(3-chloro-2-fluorobenzyl)-4-fluoropyrrolidine-2-carboxamide] showed an IC50 of less than 1000 nM.

As to `CC(=O)c1cn(CC(=O)N2C[C@H](F)C[C@H]2C(=O)Nc2ccc3c(c2)OC(C)(C)C3)c2ccc(-c3ccnnc3)cc12` [Compound 75, (2S,4R)-1-(2-(3-acetyl-5-(pyridazin-4-yl)-1H-indol-1-yl)acetyl)-N-(2,2-dimethyl-2,3-dihydrobenzofuran-6-yl)-4-fluoropyrrolidine-2-carboxamide], the concentration for half-maximal inhibition (IC50) is less than 1000 nM.

Turning to `CC(=O)c1cn(CC(=O)N2[C@@H]3C[C@@H]3C[C@H]2C(=O)Nc2cccc(-c3ccccc3Cl)c2F)c2ccc(-c3cnc(C)nc3)cc12` [Compound 133, (1R,3S,5R)-2-(2-(3-acetyl-5-(2-methylpyrimidin-5-yl)-1H-indol-1-yl)acetyl)-N-(2′-chloro-2-fluorobiphenyl-3-yl)-2-azabicyclo[3.1.0] hexane-3-carboxamide], the IC50 is less than 1000 nM.

In turn, `NC(=O)c1nn(CC(=O)N2C[C@H](F)C[C@H]2C(=O)Nc2nnc(-c3ccccc3Cl)s2)c2ccc(-c3ccnnc3)cc12` [Compound 115, 1-(2-((2S,4R)-2-(5-(2-chlorophenyl)-1,3,4-thiadiazol-2-ylcarbamoyl)-4-fluoropyrrolidin-1-yl)-2-oxoethyl)-5-(pyridazin-4-yl)-1H-indazole-3-carboxamide] gave an IC50 greater than 10000 nM.

As to `CC(=O)c1cn(CC(=O)N2C[C@H](F)C[C@H]2C(=O)Nc2cccc(-c3ccccc3Cl)c2F)c2ccc(-c3cnc(O)nc3)cc12` [Compound 186, (2S,4R)-1-(2-(3-acetyl-5-(2-hydroxypyrimidin-5-yl)-1H-indol-1-yl)acetyl)-N-(2′-chloro-2-fluorobiphenyl-3-yl)-4-fluoropyrrolidine-2-carboxamide], the IC50 is less than 1000 nM.

The compound `NC(=O)c1nn(CC(=O)N2C[C@H](F)C[C@H]2C(=O)NCc2cc(F)cc(Cl)c2)c2ccc(-c3ccnnc3)cc12` [Compound 62, 1-(2-((2S,4R)-2-(3-chloro-5-fluorobenzylcarbamoyl)-4-fluoropyrrolidin-1-yl)-2-oxoethyl)-5-(pyridazin-4-yl)-1H-indazole-3-carboxamide] registered an IC50 of less than 1000 nM.

In the case of `CC(=O)c1cn(CC(=O)N2C[C@H](F)C[C@H]2C(=O)Nc2cccc(-c3cc(F)c(F)cc3Cl)c2F)c2ccc(-c3cnc(C)nc3)cc12` [Compound 150, (2S,4R)-1-(2-(3-acetyl-5-(2-methylpyrimidin-5-yl)-1H-indol-1-yl)acetyl)-N-(2′-chloro-2,4′,5′-trifluorobiphenyl-3-yl)-4-fluoropyrrolidine-2-carboxamide], the IC50 was less than 1000 nM.

In turn, `NC(=O)c1nn(CC(=O)N2C[C@H](F)C[C@H]2C(=O)Nc2cccc(-c3ccccc3Cl)c2F)c2ccc(-c3cnc(N4CCCC4)nc3)cc12` [Compound 10] had an IC50 of less than 1000 nM.

As for `CC(=O)c1cn(CC(=O)N2C[C@H](F)C[C@H]2C(=O)Nc2cccc(Br)n2)c2ccc(-c3cnc(F)nc3)cc12` [Compound 83, (2S,4R)-1-(2-(3-acetyl-5-(2-fluoropyrimidin-5-yl)-1H-indol-1-yl)acetyl)-N-(6-bromopyridin-2-yl)-4-fluoropyrrolidine-2-carboxamide], the IC50 is less than 1000 nM.

Compound `NC(=O)c1nn(CC(=O)N2C[C@H](F)C[C@H]2C(=O)NCc2cccc(Cl)c2)c2ccc(-c3ccnnc3)cc12` [Compound 45, 1-(2-((2S,4R)-2-(3-chlorobenzylcarbamoyl)-4-fluoropyrrolidin-1-yl)-2-oxoethyl)-5-(pyridazin-4-yl)-1H-indazole-3-carboxamide] showed an IC50 of less than 1000 nM.

As to `CC(=O)c1cn(CC(=O)N2[C@@H]3C[C@@H]3C[C@H]2C(=O)NCc2cccc(Cl)c2F)c2ccc(-c3cnc(C)nc3)cc12` [Compound 134, (1R,3S,5R)-2-(2-(3-acetyl-5-(2-methylpyrimidin-5-yl)-1H-indol-1-yl)acetyl)-N-(3-chloro-2-fluorobenzyl)-2-azabicyclo[3.1.0] hexane-3-carboxamide], the IC50 is less than 1000 nM.

Broadly, the IC50 is the concentration that gives 50% inhibition. Read a high IC50 as lower potency.

The values are drawn from patent US9796741B2 (Achillion Pharmaceuticals, Inc., priority 2014, dated 2017).
